Experimental data: US20240025906A1 (NEURON23, INC., priority 2022, published 2024)
Where two headings read alike, the source gives them in different places.

Legend:
[1] = tested on: JAK1/TYK2 pSTAT5 (Tyr694/699) in THP-1 cell line; assay: IFNa-stimulated JAK1/TYK2 pSTAT5 (Tyr694/699) inhibition cellular assay, AlphaLISA; type: cell-based; settings: Homo sapiens, THP-1 cells, AlphaLISA (Assay B), read-out: Cellular_THP1_IFNa-pSTATS_TYK2
In short: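 THP-1 cells (2e4/well) in HBSS preincubated 1 h at 37° C. with compound (final 10000–0.04 nM, 8 points, 6-fold), then stimulated with IFNa (100 ng/mL stock) for 30 min before lysis. pSTAT5 (Tyr694/699) read by AlphaLISA at 615 nm; IC50 from four-parameter logistic fit with bottom fixed at 0 and Hill slope at −1.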

TYK2 JH2 = target: T1, TYK2 JH2 (Homo sapiens, UniProt P29597); assay: TYK2 JH2 binding assay (KINOMEscan KdELECT competitive binding); settings: TYK2 JH2 domain, KINOMEscan KdELECT (Assay A); read-out: Biochemical TYK2_DiscoverX_JH2_BND_Kd
T1 construct: purchased DiscoverX (KINOMEscan KdELECT service); host or cells: E. coli BL21-derived (T7 phage display) or HEK-293
T1 sequence (P29597 589-875 limits assumed): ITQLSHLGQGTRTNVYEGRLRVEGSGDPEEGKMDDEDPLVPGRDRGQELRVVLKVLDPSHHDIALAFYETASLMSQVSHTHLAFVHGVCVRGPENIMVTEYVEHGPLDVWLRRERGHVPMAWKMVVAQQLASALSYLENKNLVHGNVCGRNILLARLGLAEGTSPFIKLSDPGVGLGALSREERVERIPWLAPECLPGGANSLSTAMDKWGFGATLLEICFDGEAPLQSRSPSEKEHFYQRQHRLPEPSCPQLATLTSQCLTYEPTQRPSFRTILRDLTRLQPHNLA
In short: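 Beads carrying a biotinylated ligand were mixed with tagged JH2 kinase and compound (11 points, 3-fold steps, 0.9% DMSO) and shaken 1 h at room temperature. After washing, kinase was released with 0.5 μM untagged ligand over 30 min and measured by qPCR to derive Kd.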

[2] = IFNa-stimulated pSTAT5 (Tyr694/699)

| SMILES | IC50 ([1]; IFNa-stimulated) | Kd (TYK2 JH2) | IC50 [1, 2] |
| --- | --- | --- | --- |
| CNc1ncc(C#Cc2ccc(-n3c(=O)ccn3C)cc2)c2cc(NC(=O)C3CC3)ncc12 [Example 962, N-[8-(methylamino)-5-[2-[4-(2-methyl-5-oxo-pyrazol-1-yl)phenyl]ethynyl]-2,7-naphthyridin-3-yl]cyclopropanecarboxamide] | ≤ 0.5 µM | ≤ 0.1 µM | – |
| CNc1ncc(C#Cc2ncc(OC)cc2CF)c2cc(NC(=O)C3CC3)ncc12 [Example 963, N-[5-[2-[3-(fluoromethyl)-5-methoxy-2-pyridyl]ethynyl]-8-(methylamino)-2,7-naphthyridin-3-yl]cyclopropanecarboxamide] | ≤ 0.5 µM | ≤ 0.1 µM | – |
| CNc1ncc(C#Cc2ccc(COC)cn2)c2cc(NC(=O)C3CC3)ncc12 [Example 964, N-[5-[2-[5-(methoxymethyl)-2-pyridyl]ethynyl]-8-(methylamino)-2,7-naphthyridin-3-yl]cyclopropanecarboxamide] | ≤ 0.5 µM | ≤ 0.1 µM | – |
| CNc1ncc(C#Cc2ccc(OC)cc2CO)c2cc(NC(=O)C3CC3)ncc12 [Example 965, N-[5-[2-[2-(hydroxymethyl)-4-methoxy-phenyl]ethynyl]-8-(methylamino)-2,7-naphthyridin-3-yl]cyclopropanecarboxamide] | ≤ 0.5 µM | ≤ 0.1 µM | – |
| CNc1ncc(C#Cc2ccc(Oc3nccn3C)cc2)c2cc(NC(=O)C3CC3)ncc12 [Example 966, N-(5-((4-((1-methyl-1H-imidazol-2-yl)oxy)phenyl)ethynyl)-8-(methylamino)-2,7-naphthyridin-3-yl)cyclopropanecarboxamide] | ≤ 0.5 µM | ≤ 0.1 µM | – |
| CNc1ncc(C#Cc2ncc(OC)cc2CO)c2cc(NC(=O)C3CC3)ncc12 [Example 967, N-[5-[2-[3-(hydroxymethyl)-5-methoxy-2-pyridyl]ethynyl]-8-(methylamino)-2,7-naphthyridin-3-yl]cyclopropanecarboxamide] | ≤ 0.5 µM | ≤ 0.1 µM | – |
| CNc1ncc(C#Cc2cc3sc(C)cc3cn2)c2cc(NC(=O)C3CC3)ncc12 [Example 968, N-[8-(methylamino)-5-[2-(2-methylthieno[3,2-c]pyridin-6-yl)ethynyl]-2,7-naphthyridin-3-yl]cyclopropanecarboxamide] | ≤ 0.5 µM | ≤ 0.1 µM | – |
| CNc1ncc(C#Cc2ccc(N3CCOCC3)cc2F)c2cc(NC(=O)C3CC3)ncc12 [Example 969, N-[5-[2-(2-fluoro-4-morpholino-phenyl)ethynyl]-8-(methylamino)-2,7-naphthyridin-3-yl]cyclopropanecarboxamide] | ≤ 0.5 µM | ≤ 0.1 µM | – |
| CNc1ncc(C#Cc2ccc(Oc3cn(C)c(C)n3)cc2)c2cc(NC(=O)C3CC3)ncc12 [Example 970, N-(5-((4-((1,2-dimethyl-1H-imidazol-4-yl)oxy)phenyl)ethynyl)-8-(methylamino)-2,7-naphthyridin-3-yl)cyclopropanecarboxamide] | ≤ 0.5 µM | ≤ 0.1 µM | – |
| CNc1ncc(C#Cc2ccc(Oc3ccn(C)n3)cc2)c2cc(NC(=O)C3CC3)ncc12 [Example 971, N-[8-(methylamino)-5-[2-[4-(1-methylpyrazol-3-yl)oxyphenyl]ethynyl]-2,7-naphthyridin-3-yl]cyclopropanecarboxamide] | ≤ 0.5 µM | ≤ 0.1 µM | – |
| CNc1ncc(C#Cc2ccc3c(c2)C(F)(F)C(=O)N3C)c2cc(NC(=O)C3CC3)ncc12 [Example 972, N-[5-[2-(3,3-difluoro-1-methyl-2-oxo-indolin-5-yl)ethynyl]-8-(methylamino)-2,7-naphthyridin-3-yl]cyclopropanecarboxamide] | ≤ 0.5 µM | ≤ 0.1 µM | – |
| CNc1ncc(C#Cc2cc3c(cc2F)OCCO3)c2cc(NC(=O)C3CC3)ncc12 [Example 973, N-[5-[2-(6-fluoro-2,3-dihydro-1,4-benzodioxin-7-yl)ethynyl]-8-(methylamino)-2,7-naphthyridin-3-yl]cyclopropanecarboxamide] | ≤ 0.5 µM | ≤ 0.1 µM | – |
| CNc1ncc(C#Cc2ccc3c(c2)CCC(CF)O3)c2cc(NC(=O)C3CC3)ncc12 (stereo not drawn) [Example 974, N-[5-[2-[2-(fluoromethyl)chroman-6-yl]ethynyl]-8-(methylamino)-2,7-naphthyridin-3-yl]cyclopropanecarboxamide] | ≤ 0.5 µM | ≤ 0.1 µM | – |
| CNc1ncc(C#Cc2cccc3c2SCCC3=O)c2cc(NC(=O)C3CC3)ncc12 [Example 975, N-[8-(methylamino)-5-[2-(4-oxothiochroman-8-yl)ethynyl]-2,7-naphthyridin-3-yl]cyclopropanecarboxamide] | ≤ 0.5 µM | ≤ 0.1 µM | – |
| CNc1ncc(C#Cc2ncc(OC)cc2C(F)F)c2cc(NC(=O)C3CC3)ncc12 [Example 976, N-(5-((3-(difluoromethyl)-5-methoxypyridin-2-yl)ethynyl)-8-(methylamino)-2,7-naphthyridin-3-yl)cyclopropanecarboxamide] | ≤ 0.5 µM | ≤ 0.1 µM | – |
| CNc1ncc(C#Cc2ccc3c(c2)OCC(C)O3)c2cc(NC(=O)C3CC3)ncc12 (stereo not drawn) [Example 977, N-[8-(methylamino)-5-[2-(2-methyl-2,3-dihydro-1,4-benzodioxin-6-yl)ethynyl]-2,7-naphthyridin-3-yl]cyclopropanecarboxamide] | ≤ 0.5 µM | ≤ 0.1 µM | – |
| CNc1ncc(C#Cc2ccc3c(c2)C=CC(C)(C)O3)c2cc(NC(=O)C3CC3)ncc12 [Example 978, N-[5-[2-(2,2-dimethylchromen-6-yl)ethynyl]-8-(methylamino)-2,7-naphthyridin-3-yl]cyclopropanecarboxamide] | ≤ 0.5 µM | ≤ 0.1 µM | – |

Now from value to compound:

| IC50 ([1]; IFNa-stimulated) | Kd (TYK2 JH2) | IC50 [1, 2] | SMILES |
| --- | --- | --- | --- |
| ≤ 0.5 µM | ≤ 0.1 µM | – | CNc1ncc(C#Cc2ccnc(F)c2)c2cc(NC(=O)C3CC3)ncc12 [Example 979, N-[5-[2-(2-fluoro-4-pyridyl)ethynyl]-8-(methylamino)-2,7-naphthyridin-3-yl]cyclopropanecarboxamide] |
| ≤ 0.5 µM | ≤ 0.1 µM | – | CNc1ncc(C#Cc2ccc(F)cn2)c2cc(NC(=O)C3CC3)ncc12 [Example 980, N-[5-[2-(5-fluoro-2-pyridyl)ethynyl]-8-(methylamino)-2,7-naphthyridin-3-yl]cyclopropanecarboxamide] |
| ≤ 0.5 µM | ≤ 0.1 µM | – | CNc1ncc(C#Cc2ccc3c(c2)CCC(CO)O3)c2cc(NC(=O)C3CC3)ncc12 (stereo not drawn) [Example 981] |
| ≤ 0.5 µM | ≤ 0.1 µM | – | CNc1ncc(C#Cc2nccc3ccsc23)c2cc(NC(=O)C3CC3)ncc12 [Example 984, N-[8-(methylamino)-5-(2-thieno[2,3-c]pyridin-7-ylethynyl)-2,7-naphthyridin-3-yl]cyclopropanecarboxamide] |
| ≤ 0.5 µM | ≤ 0.1 µM | – | CNc1ncc(C#Cc2ccncc2Cl)c2cc(NC(=O)C3CC3)ncc12 [Example 985, N-[5-[2-(3-chloro-4-pyridyl)ethynyl]-8-(methylamino)-2,7-naphthyridin-3-yl]cyclopropanecarboxamide] |
| ≤ 0.5 µM | ≤ 0.1 µM | – | CNc1ncc(C#Cc2ccc(Oc3cn(C)cn3)cc2)c2cc(NC(=O)C3CC3)ncc12 [Example 986, N-[8-(methylamino)-5-[2-[4-(1-methylimidazol-4-yl)oxyphenyl]ethynyl]-2,7-naphthyridin-3-yl]cyclopropanecarobxmaide] |
| ≤ 0.5 µM | ≤ 0.1 µM | – | CNc1ncc(C#Cc2ccc3c(c2)CCC(COC)O3)c2cc(NC(=O)C3CC3)ncc12 (stereo not drawn) [Example 987, N-[5-[2-[2-(methoxymethyl)chroman-6-yl]ethynyl]-8-(methylamino)-2,7-naphthyridin-3-yl]cyclopropanecarobxamide] |
| ≤ 0.5 µM | ≤ 0.1 µM | – | CNc1ncc(C#Cc2cn(C)cn2)c2cc(NC(=O)C3CC3)ncc12 [Example 990, N-[8-(methylamino)-5-[2-(1-methylimidazol-4-yl)ethynyl]-2,7-naphthyridin-3-yl]cyclopropanecarboxamide] |
| ≤ 0.5 µM | ≤ 0.1 µM | – | CNc1ncc(C#Cc2ccncc2F)c2cc(NC(=O)C3CC3)ncc12 [Example 991, N-[5-[2-(3-fluoro-4-pyridyl)ethynyl]-8-(methylamino)-2,7-naphthyridin-3-yl]cyclopropanecarboxamide] |
| ≤ 0.5 µM | ≤ 0.1 µM | – | CNc1ncc(C#Cc2ccnc(Cl)c2)c2cc(NC(=O)C3CC3)ncc12 [Example 992, N-[5-[2-(2-chloro-4-pyridyl)ethynyl]-8-(methylamino)-2,7-naphthyridin-3-yl]cyclopropanecarboxamide] |
| ≤ 0.5 µM | ≤ 0.1 µM | – | CNc1ncc(C#Cc2ccc(OCC(F)(F)F)cn2)c2cc(NC(=O)C3CC3)ncc12 [Example 993, N-[8-(methylamino)-5-[2-[5-(2,2,2-trifluoroethoxy)-2-pyridyl]ethynyl]-2,7-naphthyridin-3-yl]cyclopropanecarboxamide] |
| – | ≤ 0.1 µM | ≤ 0.5 µM | CNc1ncc(C#Cc2ccc(Cl)cn2)c2cc(NC(=O)C3CC3)ncc12 [Example 995, N-(5-((5-chloropyridin-2-yl)ethynyl)-8-(methylamino)-2,7-naphthyridin-3-yl)cyclopropanecarboxamide] |
| – | ≤ 0.1 µM | ≤ 0.5 µM | CNc1ncc(C#Cc2ccc3nc(C(F)F)sc3c2)c2cc(NC(=O)C3CC3)ncc12 [Example 996, N-(5-((2-(difluoromethyl)benzo[d]thiazol-6-yl)ethynyl)-8-(methylamino)-2,7-naphthyridin-3-yl)cyclopropanecarboxamide] |
